The target of this assay is CB1R (Homo sapiens, UniProt P21554). Nature of the assay: cell-based. The class given is binding.

One may read the pKi as the negative decadic logarithm of the Ki, by convention in mol/L. Low values mean a large Ki, high ones a small Ki. What is called Ki is the dissociation constant of the complex between target and ligand, obtained from inhibition or displacement.

pKi: −log10 of the molar value. Read-outs that look alike come from different tables or passages of the source.

CB1R, sequence (P21554 whole entry): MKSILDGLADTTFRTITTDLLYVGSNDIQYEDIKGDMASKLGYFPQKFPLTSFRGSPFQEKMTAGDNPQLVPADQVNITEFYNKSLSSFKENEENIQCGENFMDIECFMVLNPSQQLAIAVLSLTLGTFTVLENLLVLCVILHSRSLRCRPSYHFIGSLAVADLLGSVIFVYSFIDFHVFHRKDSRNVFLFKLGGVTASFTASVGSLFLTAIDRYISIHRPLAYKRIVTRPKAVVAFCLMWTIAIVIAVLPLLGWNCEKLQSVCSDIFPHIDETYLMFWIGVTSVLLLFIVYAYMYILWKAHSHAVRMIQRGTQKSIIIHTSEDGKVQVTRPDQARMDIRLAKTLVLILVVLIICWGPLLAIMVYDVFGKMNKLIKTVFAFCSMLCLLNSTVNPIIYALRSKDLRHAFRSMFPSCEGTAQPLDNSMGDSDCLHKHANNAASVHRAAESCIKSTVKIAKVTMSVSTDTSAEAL

The compound `N#Cc1c(Oc2cccc(OS(=O)(=O)CCCC(F)(F)F)c2)cccc1C(F)(F)F` [Compound 29, 3-[2-cyano-3-(trifluoromethyl)phenoxy]phenyl-4,4,4-trifluoro-1-butanesulfonate] showed a pKi of 7.74.
In the case of AM-1248 [Compound 10], under “read-out: Ki (nM), binding affinity for CB1R, competition with 3 nM [3H]-SR141716A, 6 h at 4°C, Ki=IC50/(1+[D]/Kd)”, the Ki was 104 nM.

Source of the values: paper PMC11214964 (Biomolecules & Therapeutics, 2024).
